Test system: moderate-to-severe chronic spontaneous urticaria (CSU)
Test: Phase 2 CSU study: urticaria activity score over 7 days (UAS7)
Type: in vivo, human
Details: Omalizumab-Naïve
From the text: The study comprises a 12 week, randomized, double-blind, placebo-controlled, multi-center, dose-ranging efficacy and safety phase, followed by a 40 week open label extension (OLE) phase (see FIG. 1). The study consists of three phases and an optional OLE phase. […] Clinically, CSU is characterized by the spontaneous and recurrent appearance of pruritic hives. The proposed primary endpoints were the UAS7 at Week 12 in EU and EU reference countries and the ISS7 in the US. Regardless of where a participant was from, all assessments were the same. The UAS7 score is a composite score containing both the HSS7 and the ISS7. This allowed a global assessment of the two key components of urticaria: hives and itch. […] The UAS is a validated PRO measure. […] The daily UAS scores range from 0 to 6 point/day. […] Patients were to complete the UAS using the e-diary. […] The following secondary endpoints were to be analyzed using the same approach as for the primary endpoint: • Change from baseline in UAS7 at Week 4 • Change from baseline in UAS7 at Week 12 (for US and US reference countries) • Change from baseline in ISS7 at Week 12 (except US and US reference countries) • Change from baseline in HSS7 at Week 12 The following responder secondary endpoints were to be analyzed using the Cochran-Mantel-Haenszel test adjusted by region: • Proportion of participants with UAS7<6 at Week 12 • Proportion of participants with UAS7=0 at Week 12 Participants who received selected prohibited medications and/or rescue medications were to be considered as non-responders for time points after the medication usage. For other participants, all available data including those collected during the off-treatment period were to be used to determine the responder/non-responder status. Missing data were to be considered as non-responders.

[1] = Age group (years) ≥44 (Median), 400 mg QPM
[2] = Age group (years) ≥44 (Median), 400 mg TID
[3] = Age group (years) ≥65, 400 mg BID
[4] = Age group (years) ≥65, 400 mg QPM
[5] = Age group (years) ≥65, 400 mg TID
[6] = Baseline BHRA BHRA+, 400 mg BID
[7] = Baseline BHRA BHRA+, 400 mg QPM
[8] = Baseline BHRA BHRA+, 400 mg TID
[9] = Baseline BHRA BHRA−, 400 mg BID
[10] = Baseline BHRA BHRA−, 400 mg QPM
[11] = Baseline BHRA BHRA−, 400 mg TID
[12] = Baseline Eosinophils (10^9/L) <0.150, 400 mg BID
[13] = Baseline Eosinophils (10^9/L) <0.150, 400 mg TID
[14] = Baseline Eosinophils (10^9/L) <0.165 (Median), 400 mg BID
[15] = Baseline Eosinophils (10^9/L) <0.165 (Median), 400 mg QPM
[16] = Baseline Eosinophils (10^9/L) <0.165 (Median), 400 mg TID
[17] = Baseline Eosinophils (10^9/L) <0.3, 400 mg BID
[18] = Baseline Eosinophils (10^9/L) <0.3, 400 mg QPM
[19] = Baseline Eosinophils (10^9/L) <0.3, 400 mg TID
[20] = Baseline Eosinophils (10^9/L) ≥0.150, 400 mg BID
[21] = Baseline Eosinophils (10^9/L) ≥0.150, 400 mg TID
[22] = Baseline Eosinophils (10^9/L) ≥0.165 (Median), 400 mg BID
[23] = Baseline Eosinophils (10^9/L) ≥0.165 (Median), 400 mg QPM
[24] = Baseline Eosinophils (10^9/L) ≥0.165 (Median), 400 mg TID

## CC(C)(C=C(C#N)C(=O)N1CCC[C@@H](n2nc(-c3ccc(Oc4ccccc4)cc3F)c3c(N)ncnc32)C1)N1CCN(C2COC2)CC1 [rilzabrutinib, (R)-2-[3-[4-amino-3-(2-fluoro-4-phenoxy-phenyl)pyrazolo[3,4-d]pyrimidin-1-yl]piperidine-1-carbonyl]-4-methyl-4-[4-(oxetan-3-yl)piperazin-1-yl]pent-2-enenitrile]
[1]
  Change from Baseline in UAS7 at Week 12: LS Mean Diff vs. placebo (95% CI): 2.72 (−5.76, 11.20)
  Change from Baseline in UAS7 at Week 12: Mean (SD): −10.71 (7.99)
[2]
  Change from Baseline in UAS7 at Week 12: LS Mean (SE): −17.54 (2.39)
  Change from Baseline in UAS7 at Week 12: LS Mean Diff vs. placebo (95% CI): −5.98 (−13.92, 1.95)
  Change from Baseline in UAS7 at Week 12: Mean (SD): −19.17 (11.98)
[3]
  Change from Baseline in UAS7 at Week 12: LS Mean (SE): −21.85 (10.98)
  Change from Baseline in UAS7 at Week 12: Mean (SD): −29.00 (NC)^
[4]
  Change from Baseline in UAS7 at Week 12: LS Mean (SE): −1.73 (17.36)
  Change from Baseline in UAS7 at Week 12: LS Mean Diff vs. placebo (95% CI): −3.19 (−44.28, 37.89)
  Change from Baseline in UAS7 at Week 12: Mean (SD): −16.33 (NC) ^
[5]
  Change from Baseline in UAS7 at Week 12: LS Mean (SE): −23.81 (7.07)
  Change from Baseline in UAS7 at Week 12: Mean (SD): −24.13 (14.17)
[6]
  Change from Baseline in UAS7 at Week 12: LS Mean (SE): −19.58 (5.46)
  Change from Baseline in UAS7 at Week 12: LS Mean Diff vs. placebo (95% CI): −10.09 (−27.02, 6.84)
  Change from Baseline in UAS7 at Week 12: Mean (SD): −19.50 (10.03)
[7]
  Change from Baseline in UAS7 at Week 12: LS Mean (SE): −17.03 (6.45)
  Change from Baseline in UAS7 at Week 12: LS Mean Diff vs. placebo (95% CI): −7.53 (−24.53, 9.46)
  Change from Baseline in UAS7 at Week 12: Mean (SD): −19.94 (5.28)
[8]
  Change from Baseline in UAS7 at Week 12: LS Mean (SE): −22.12 (5.72)
  Change from Baseline in UAS7 at Week 12: LS Mean Diff vs. placebo (95% CI): −12.63 (−29.25, 4.00)
  Change from Baseline in UAS7 at Week 12: Mean (SD): −22.13 (16.40)
[9]
  Change from Baseline in UAS7 at Week 12: LS Mean (SE): −12.39 (2.21)
  Change from Baseline in UAS7 at Week 12: LS Mean Diff vs. placebo (95% CI): −2.42 (−8.35, 3.52)
[10]
  Change from Baseline in UAS7 at Week 12: LS Mean (SE): −8.95 (2.08)
  Change from Baseline in UAS7 at Week 12: LS Mean Diff vs. placebo (95% CI): 1.02 (−4.73, 6.78)
  Change from Baseline in UAS7 at Week 12: Mean (SD): −9.96 (9.08)
[11]
  Change from Baseline in UAS7 at Week 12: LS Mean (SE): −16.51 (2.11)
  Change from Baseline in UAS7 at Week 12: LS Mean Diff vs. placebo (95% CI): −6.53 (−12.28, −0.79)
  Change from Baseline in UAS7 at Week 12: Mean (SD): −18.52 (10.75)
Baseline BMI (kg/m^2) ≥30, 400 mg BID
  Change from Baseline in UAS7 at Week 12: LS Mean Diff vs. placebo (95% CI): −1.65 (−13.49, 10.19)
Baseline BMI (kg/m^2) ≥30, 400 mg QPM
  Change from Baseline in UAS7 at Week 12: LS Mean Diff vs. placebo (95% CI): −0.43 (−11.59, 10.72)
Baseline BMI (kg/m^2) ≥30, 400 mg TID
  Change from Baseline in UAS7 at Week 12: LS Mean Diff vs. placebo (95% CI): −7.58 (−20.66, 5.50)
[12]
  Change from Baseline in UAS7 at Week 12: LS Mean (SE): −13.60 (3.19)
  Change from Baseline in UAS7 at Week 12: LS Mean Diff vs. placebo (95% CI): −0.54 (−8.95, 7.87)
[13]
  Change from Baseline in UAS7 at Week 12: LS Mean (SE): −20.09 (3.11)
  Change from Baseline in UAS7 at Week 12: LS Mean Diff vs. placebo (95% CI): −7.04 (−15.34, 1.27)
[14]
  Change from Baseline in UAS7 at Week 12: LS Mean (SE): −14.30 (2.83)
  Change from Baseline in UAS7 at Week 12: LS Mean Diff vs. placebo (95% CI): −1.83 (−9.50, 5.84)
  Change from Baseline in UAS7 at Week 12: Mean (SD): −11.24 (8.98)
[15]
  Change from Baseline in UAS7 at Week 12: LS Mean (SE): −7.71 (2.71)
  Change from Baseline in UAS7 at Week 12: LS Mean Diff vs. placebo (95% CI): 4.76 (−2.75, 12.26)
  Change from Baseline in UAS7 at Week 12: Mean (SD): 9.46 (8.63)
[16]
  Change from Baseline in UAS7 at Week 12: LS Mean (SE): −19.82 (2.96)
  Change from Baseline in UAS7 at Week 12: LS Mean Diff vs. placebo (95% CI): −7.36 (−15.23, 0.52)
  Change from Baseline in UAS7 at Week 12: Mean (SD): −21.57 (13.01)
[17]
  Change from Baseline in UAS7 at Week 12: LS Mean (SE): −15.05 (2.31)
  Change from Baseline in UAS7 at Week 12: LS Mean Diff vs. placebo (95% CI): −4.89 (−11.04, 1.26)
  Change from Baseline in UAS7 at Week 12: Mean (SD): −14.90 (12.30)
[18]
  Change from Baseline in UAS7 at Week 12: LS Mean (SE): −9.19 (2.15)
  Change from Baseline in UAS7 at Week 12: LS Mean Diff vs. placebo (95% CI): 0.97 (−5.00, 6.93)
  Change from Baseline in UAS7 at Week 12: Mean (SD): −10.75 (8.91)
[19]
  Change from Baseline in UAS7 at Week 12: LS Mean (SE): −18.29 (2.31)
  Change from Baseline in UAS7 at Week 12: LS Mean Diff vs. placebo (95% CI): −8.14 (−14.29, −1.98)
  Change from Baseline in UAS7 at Week 12: Mean (SD): −19.99 (12.00)
[20]
  Change from Baseline in UAS7 at Week 12: LS Mean (SE): −14.57 (2.57)
  Change from Baseline in UAS7 at Week 12: LS Mean Diff vs. placebo (95% CI): −7.68 (−15.25, −0.11)
[21]
  Change from Baseline in UAS7 at Week 12: LS Mean (SE): −14.80 (2.58)
  Change from Baseline in UAS7 at Week 12: LS Mean Diff vs. placebo (95% CI): −7.92 (−15.27, −0.56)
[22]
  Change from Baseline in UAS7 at Week 12: LS Mean (SE): −14.13 (2.87)
  Change from Baseline in UAS7 at Week 12: LS Mean Diff vs. placebo (95% CI): −7.01 (−15.24, 1.22)
  Change from Baseline in UAS7 at Week 12: Mean (SD): −17.73 (14.16)
[23]
  Change from Baseline in UAS7 at Week 12: LS Mean (SE): −10.83 (2.83)
  Change from Baseline in UAS7 at Week 12: LS Mean Diff vs. placebo (95% CI): −3.71 (−11.80, 4.38)
  Change from Baseline in UAS7 at Week 12: Mean (SD): −11.84 (10.30)
[24]
  Change from Baseline in UAS7 at Week 12: LS Mean (SE): −14.63 (2.71)
  Change from Baseline in UAS7 at Week 12: LS Mean Diff vs. placebo (95% CI): −7.52 (−15.32, 0.28)
